BigSolDB 2.1

O=C(O)COc1ccc2ccccc2c1
solubility (mole fraction)
Details | 278.15 K | 283.15 K | 288.15 K | 293.15 K | 298.15 K | 303.15 K | 308.15 K | 313.15 K | 318.15 K | 323.15 K
in acetone | 0.038 | 0.0427 | 0.0481 | 0.0543 | 0.0613 | 0.0693 | 0.0785 | 0.089 | 0.101 | 0.115
in acetonitrile | 0.00475 | 0.00574 | 0.00695 | 0.0084 | 0.0101 | 0.0123 | 0.0148 | 0.0178 | 0.0214 | 0.0258
in ethanol | 0.0128 | 0.0152 | 0.0181 | 0.0217 | 0.0261 | 0.0315 | 0.0383 | 0.0469 | 0.0582 | 0.0728
in ethyl acetate | 0.0145 | 0.0167 | 0.0192 | 0.0221 | 0.0255 | 0.0294 | 0.034 | 0.0393 | 0.0455 | 0.0527
in isobutanol | 0.00557 | 0.00685 | 0.00854 | 0.0106 | 0.0132 | 0.0165 | 0.0208 | 0.0262 | 0.0333 | 0.0422
in isopropanol | 0.00742 | 0.00922 | 0.0115 | 0.0144 | 0.0171 | 0.0217 | 0.0262 | 0.03 | 0.0359 | 0.0407
in isopropyl acetate | 0.0105 | 0.0121 | 0.014 | 0.0162 | 0.0187 | 0.0216 | 0.025 | 0.029 | 0.0336 | 0.039
in methanol | 0.0132 | 0.0157 | 0.0188 | 0.0227 | 0.0276 | 0.0339 | 0.0415 | 0.052 | 0.0656 | 0.0846
in methyl acetate | 0.0156 | 0.0181 | 0.021 | 0.0243 | 0.0283 | 0.0329 | 0.0382 | 0.0445 | 0.0517 | 0.0602
in n-pentanol | 0.0114 | 0.0137 | 0.0164 | 0.019 | 0.0242 | 0.0294 | 0.0362 | 0.0433 | 0.0526 | 0.0691
in n-propanol | 0.0101 | 0.012 | 0.0146 | 0.0178 | 0.0214 | 0.0273 | 0.0324 | 0.04 | 0.0506 | 0.0635
in n-propyl acetate | 0.0123 | 0.0142 | 0.0164 | 0.0189 | 0.0219 | 0.0253 | 0.0293 | 0.0339 | 0.0393 | 0.0454
